Data: patent publication US8946290B2, “Combination of selected opioids with muscarine antagonists for treating urinary incontinence” (Gruenenthal GmbH, priority 2001, dated 2015)

Test system: bladder function
Assay: Cystometry on anaesthetized naive rats
Format: in vivo
Settings: anaesthetized naive female rats, rate of contractions (micturition events/min)
Protocol: The cystometric investigation on naive female rats was carried out by the method of Kimura et al. (Kimura et al., 1996, Int. J. Urol. 3:218-227). The abdomen of anaesthetized, ventilated rats is opened up and the ureter is ligated. The urine is drained from the kidneys. A catheter is inserted into the bladder and fixed. […] After stable starting values are reached, the test substance is administered intravenously. An influence on bladder function manifests itself via suppression of the spontaneous contractions.
In the present example, compound A ((+)-(2R,3R)-1-dimethylamino-3-(3-methoxy-phenyl)-2-methyl-pentan-3-ol; hydrochloride) in the dosage of 0.1 mg/kg intravenous was combined with compound B (oxybutynin) in the dosage of 0.03 mg/kg intravenous and the action of this combination was compared with that of the individual substances.

SMILES | Inhibition of the rate of contractions compared with the pretest (0.1 mg/kg i.v.) [% MPE] | Inhibition of the rate of contractions compared with the pretest (0.03 mg/kg i.v.) [% MPE]
CC[C@](O)(c1cccc(OC)c1)[C@H](C)CN(C)C.Cl [Compound A, (+)-(2R,3R)-1-dimethylamino-3-(3-methoxy-phenyl)-2-methyl-pentan-3-ol; hydrochloride] | 21.7 | 
CCN(CC)CC#CCOC(=O)C(O)(c1ccccc1)C1CCCCC1 (centres unmarked) [Compound B, oxybutynin] |  | 10.7
